Measurements: patent US8759520B2, “Compounds for treating cancer” (Boehringer Ingelheim International GmbH, priority 2008, dated 2014)

target: Bcl-2 (Homo sapiens, UniProt P10415); test: Homogeneous HTS assay for inhibitors of the Bcl-2 : Bak (72-87) BH3 domain interaction, fluorescence polarisation (2D-FIDA); assay type: binding; conditions: fluorescence polarisation, fluorescent labelled Bak BH3 domain derived peptide; read-out: IC50 [μM] Bcl-2
Excerpt: FIG. 1 is a schematic drawing of the Bcl-2: Bak (72-87) interaction assay based on fluorescence polarisation.
The homogeneous HTS assay for inhibitors of the Bcl-2 is shown schematically in FIG. 1. BH3 domain interaction is based on fluorescence polarisation. The inherent rotational diffusion of the Bak BH3 domain derived fluorescent labelled peptide decreases upon binding to Bc1-2. This shift in rotational diffusion is quantitated using the two-dimensional fluorescence intensity distribution analysis (2D-FIDA; Kask et al. 2000, Biophys. J. 78: 1703-1713).
Two different BH3 domain derived peptide ligands were synthesised and subsequently fluorescently labelled: • a 16mer peptide covering amino acids 72-87 of the Bak protein; this peptide had been used by Wang and co-workers and Holinger and coworkers in their Bcl-2 protein binding studies; Wang and co-workers reported an equilibrium binding constant KD of ˜0.2 μM to Bcl-2 protein; • peptide sequence: GQVGRQLAIIGDDINR—N (Wang et al. 2002, Proc. Natl. Acad. Sci. U.S.A. 97: 7124-7129; Holinger et al. 1999, J. Biol. Chem. 274: 13298-13304).

Bcl-2, sequence (P10415 whole entry, species assumed, the tested form may be a part): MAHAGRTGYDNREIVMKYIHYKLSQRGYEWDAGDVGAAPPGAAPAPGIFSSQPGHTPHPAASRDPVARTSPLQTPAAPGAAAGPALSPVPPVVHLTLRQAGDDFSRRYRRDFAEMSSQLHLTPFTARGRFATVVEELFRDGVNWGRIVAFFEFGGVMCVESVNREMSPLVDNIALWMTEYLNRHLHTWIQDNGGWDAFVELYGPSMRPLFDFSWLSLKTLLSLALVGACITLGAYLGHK

SMILES	IC50 [µM]
CC(C)(C)c1ccc(Cn2c(=N)n(CC(O)COc3ccccc3)c3ccccc32)cc1 (stereo not drawn) [Compound 104, 1-[3-(4-tert-Butyl-benzyl)-2-imino-2,3-dihydro-benzoimidazol-1-yl]-3-phenoxy-propan-2-ol]	11 to 100
N=c1n(CCCOc2ccc(F)cc2)c2ccccc2n1Cc1ccc(CN2CCN(c3ccccc3Cl)CC2)cc1 [Compound 44, 1-{4-[4-(2-Chloro-phenyl)-piperazin-1-ylmethyl]-benzyl}-3-[3-(4-fluoro-phenoxy)-propyl]-1,3-dihydro-benzoimidazol-2-ylideneamine]	11 to 100
N=c1n(CCCOc2ccc(F)cc2)c2ccccc2n1Cc1ccc(Br)cc1 [Compound 5, 1-(4-Bromo-benzyl)-3-[3-(4-fluoro-phenoxy)-propyl]-1,3-dihydro-benzoimidazol-2-ylideneamine]	< 10
N=c1n(CCSc2ccccc2)c2ccccc2n1Cc1ccc(Br)cc1 [Compound 7, 1-(4-Bromo-benzyl)-3-(2-phenylsulfanyl-ethyl)-1,3-dihydro-benzoimidazol-2-ylideneamine]	11 to 100
N=c1n(CCCOc2ccc(Cl)cc2)c2ccccc2n1Cc1ccc(Br)cc1 [Compound 12, 1-(4-Bromo-benzyl)-3-[3-(4-chloro-phenoxy)-propyl]-1,3-dihydro-benzoimidazol-2-ylideneamine]	11 to 100
CCOC(=O)c1cccc(OCCCn2c(=N)n(Cc3ccc(N4CCN(Cc5ccccc5-c5ccc(Cl)cc5)CC4)cc3)c3ccccc32)c1 [Compound 73, 3-[3-(3-{4-[4-(4′-Chloro-biphenyl-2-ylmethyl)-piperazin-1-yl]-benzyl}-2-imino-2,3-dihydro-benzoimidazol-1-yl)-propoxy]-benzoic acid ethyl ester]	< 10
N=c1n(CCCOc2ccc(F)cc2)c2ccccc2n1Cc1ccc(CN2CCN(Cc3ccc(Cl)cc3)CC2)cc1 [Compound 39, 1-{4-[4-(4-Chloro-benzyl)-piperazin-1-ylmethyl]-benzyl}-3-[3-(4-fluoro-phenoxy)-propyl]-1,3-dihydro-benzoimidazol-2-ylideneamine]	11 to 100
N=c1n(Cc2ccc(Cl)cc2)c2ccccc2n1CC(O)COc1ccc(Cl)cc1 (stereo not drawn) [Compound 105, 1-[3-(4-Chloro-benzyl)-2-imino-2,3-dihydro-benzoimidazol-1-yl]-3-(4-chloro-phenoxy)-propan-2-ol]	11 to 100
N=c1n(Cc2ccccc2)c2ccccc2n1Cc1cccnc1 [Compound 2, 1-Benzyl-3-pyridin-3-ylmethyl-1,3-dihydro-benzoimidazol-2-ylideneamine]	> 100
CCOC(=O)c1cccc(OCCCn2c(=N)n(Cc3ccc(Br)cc3)c3ccccc32)c1 [Compound 65, 3-{3-[3-(4-Bromo-benzyl)-2-imino-2,3-dihydro-benzoimidazol-1-yl]-propoxy}-benzoic acid ethyl ester]	11 to 100
N=c1n(CCCOc2ccc([N+](=O)[O-])cc2)c2ccccc2n1Cc1ccc(Br)cc1 [Compound 14, 1-(4-Bromo-benzyl)-3-[3-(4-nitro-phenoxy)-propyl]-1,3-dihydro-benzoimidazol-2-ylideneamine]	11 to 100
N=c1n(CCCOc2ccc(F)cc2)c2ccccc2n1Cc1ccc(CN2CCN(Cc3ccccc3Cl)CC2)cc1 [Compound 48, 1-{4-[4-(2-Chloro-benzyl)-piperazin-1-ylmethyl]-benzyl}-3-[3-(4-fluoro-phenoxy)-propyl]-1,3-dihydro-benzoimidazol-2-ylideneamine]	11 to 100

Continued, values first:

IC50 [µM]	SMILES
< 10	CC1(C)CCC(c2ccc(Cl)cc2)=C(CN2CCN(c3nc(Cn4c(=N)n(CCCOc5ccc(F)cc5)c5ccccc54)cs3)CC2)C1 [Compound 37, 1-(2-{4-[2-(4-Chloro-phenyl)-5,5-dimethyl-cyclohex-1-enylmethyl]-piperazin-1-yl}-thiazol-4-ylmethyl)-3-[3-(4-fluoro-phenoxy)-propyl]-1,3-dihydro-benzoimidazol-2-ylideneamine]
11 to 100	N=c1n(CCCOc2ccc(F)cc2)c2ccccc2n1Cc1ccc(N2CCN(Cc3cccc(Cl)c3)CC2)nc1 [Compound 54, 1-{6-[4-(3-Chloro-benzyl)-piperazin-1-yl]-pyridin-3-ylmethyl}-3-[3-(4-fluoro-phenoxy)-propyl]-1,3-dihydro-benzoimidazol-2-ylideneamine]
> 100	N=c1n(CCCOc2ccc(Cl)cc2)c2ccccc2n1Cc1ccncc1 [Compound 9, 1-[3-(4-Chloro-phenoxy)-propyl]-3-pyridin-4-ylmethyl-1,3-dihydro-benzoimidazol-2-ylideneamine]
< 10	N=c1n(CCCOc2ccc(F)cc2)c2ccccc2n1Cc1ccc(N2CCN(Cc3ccccc3)CC2)cc1 [Compound 22, 1-[4-(4-Benzyl-piperazin-1-yl)-benzyl]-3-[3-(4-fluoro-phenoxy)-propyl]-1,3-dihydro-benzoimidazol-2-ylideneamine]
11 to 100	N=c1n(Cc2ccccc2)c2ccccc2n1Cc1ccccn1 [Compound 1, 1-Benzyl-3-pyridin-2-ylmethyl-1,3-dihydro-benzoimidazol-2-ylideneamine]
< 10	N=c1n(CCCOc2ccc(F)cc2)c2ccccc2n1Cc1ccc(CN2CCN(Cc3cccc(Cl)c3)CC2)cc1 [Compound 47, 1-{4-[4-(3-Chloro-benzyl)-piperazin-1-ylmethyl]-benzyl}-3-[3-(4-fluoro-phenoxy)-propyl]-1,3-dihydro-benzoimidazol-2-ylideneamine]
< 10	CS(=O)(=O)NC(=O)c1cccc(OCCCn2c(=N)n(Cc3cccc(Br)c3)c3ccccc32)c1 [Compound 86, N-(3-{3-[3-(3-Bromo-benzyl)-2-imino-2,3-dihydro-benzoimidazol-1-yl]-propoxy}-benzoyl)-methanesulfonamide]
< 10	N=c1n(CCCOc2ccc(F)cc2)c2ccccc2n1Cc1ccc(N2CCN(Cc3ccccc3Cl)CC2)cc1 [Compound 20, 1-{4-[4-(2-Chloro-benzyl)-piperazin-1-yl]-benzyl}-3-[3-(4-fluoro-phenoxy)-propyl]-1,3-dihydro-benzoimidazol-2-ylideneamine]
< 10	N=c1n(Cc2ccc(N3CCN(Cc4ccccc4-c4ccccc4)CC3)cc2)c2ccccc2n1CC(O)COc1ccc(F)cc1 (stereo not drawn) [Compound 83, 1-{3-[4-(4-Biphenyl-2-ylmethyl-piperazin-1-yl)-benzyl]-2-imino-2,3-dihydro-benzoimidazol-1-yl}-3-(4-fluoro-phenoxy)-propan-2-ol]
11 to 100	Cc1ccc(OCC(O)Cn2c(=N)n(Cc3ccccc3)c3ccccc32)cc1 (stereo not drawn) [Compound 99, 1-(3-Benzyl-2-imino-2,3-dihydro-benzoimidazol-1-yl)-3-p-tolyloxy-propan-2-ol]
11 to 100	N=c1n(Cc2ccccc2)c2ccccc2n1CC(O)COc1ccc(Cl)cc1Cl (stereo not drawn) [Compound 106, 1-(3-Benzyl-2-imino-2,3-dihydro-benzoimidazol-1-yl)-3-(2,4-dichloro-phenoxy)-propan-2-ol]
< 10	CC1(C)CCC(c2ccc(Cl)cc2)=C(CN2CCN(c3cccc(Cn4c(=N)n(CCCOc5cccc(C(=O)O)c5)c5ccccc54)c3)CC2)C1 [Compound 75, 3-{3-[3-(3-{4-[2-(4-Chloro-phenyl)-5,5-dimethyl-cyclohex-1-enylmethyl]-piperazin-1-yl}-benzyl)-2-imino-2,3-dihydro-benzoimidazol-1-yl]-propoxy}-benzoic acid]
